Assay [1] deals with CCRF-CEM. The assay can be described thus: CCK-8 proliferation, CCRF-CEM. The note with it: Homo sapiens, CCRF-CEM; CCK-8; 96 hours; read-out: Inhibitory activity (IC50) on tumor cell proliferation, CCRF-CEM. It counts as cell-based, Human. An outline of the steps: (§1)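 Tumor cells were cultured at 37°C with 5% CO2, seeded, and after 24h treated with compounds at 10 concentrations starting at 10µM (5-fold serial dilutions).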

The test system of assay [2] is SW620. Briefly: CCK-8 proliferation, SW620. It counts as cell-based. The note with it: Homo sapiens, SW-620; CCK-8; 96 hours; read-out: Inhibitory activity (IC50) on tumor cell proliferation, SW620. Summed up:
as §1

Assay [3] concerns Jurkat. The assay can be described thus: CCK-8 proliferation, Jurkat. It counts as cell-based, Human. The note with it: Homo sapiens, Jurkat; CCK-8; 96 hours; read-out: Inhibitory activity (IC50) on tumor cell proliferation, Jurkat. An outline of the steps:
as §1

The test system of assay [4] is CFPAC-1. Briefly: CCK-8 proliferation, CFPAC-1. Particulars: Homo sapiens, 72 or 96 hours, read-out: Inhibitory activity (IC50) on tumor cell proliferation, CFPAC-1. It counts as cell-based. Here is the method: (§2) The tumor cells used herein were cultured in a cell culture medium listed in table A1 at 37°C in an incubator with 5% CO2. Prior to experimentation, all cell lines used were correctly identified by STR profiling, and tested negative for mycoplasma contamination using a mycoplasma detection kit through routine screenings. Table A1. Tumor cells and cell culture medium used in the present disclosure
(§3) IC50 values of the compounds of the present disclosure (including the compounds in Table 1, and compounds of examples) were measured using the Meilun Cell Counting Kit-8 kit from Dalian Meilun Biotech Co., Ltd. Assay details are as follows: tumor cells were seeded in a 96-well plate at a density listed in Table A2. After 24h, 100 µL of the inoculated cells were treated with 0.5µL of the compounds of the present disclosure (including the compounds in Tables 1 and 2, and compounds of examples) at 10 different successively decreasing concentrations (starting at the highest concentration of 10µM; 5-fold serial dilutions). After the cells were treated with the compounds of the present disclosure for a period of time, the cell viability detection reagent was added to the culture medium for cell viability assessment according to the instructions provided with the CCK-8 kit. […] The growth inhibition of the compounds of the present disclosure on cells was plotted by Prism Graphpad software, and the IC50 values of the compounds of the present disclosure were calculated therefrom. […] Seeding protocol and treatment time for tumor cells

Assay [5] deals with MGC-803. Briefly: CCK-8 proliferation, MGC-803 (heads: MGC80-3, MGC803). It counts as cell-based, Human. The note with it: Homo sapiens, MGC-803; CCK-8; 72 hours; read-out: Inhibitory activity (IC50) on tumor cell proliferation, MGC803. Summed up:
as §1

In assay [6] the test system is LNcap. Briefly: CCK-8 proliferation, LNcap. Particulars: Homo sapiens, LNCaP; CCK-8; 96 hours; read-out: Inhibitory activity (IC50) on tumor cell proliferation, Lncap. It counts as cell-based. An outline of the steps: as §1
Assay [7] has as its system K562. Briefly: CCK-8 proliferation, K562. It counts as cell-based. The note with it: Homo sapiens, 72 or 96 hours, read-out: Inhibitory activity (IC50) on tumor cell proliferation, K562. The procedure: as §2, §3
The test system of assay [8] is MM.1R. The assay can be described thus: CCK-8 proliferation, MM.1R. It counts as cell-based. The note with it: CCK-8, 72 hours, read-out: Inhibitory activity (IC50) on tumor cell proliferation, MM.1R. Summed up:
as §1

Assay [9] relates to TRK. The assay can be described thus: Western blot degradation of TRK / NTRK (SK-N-AS Cell). It counts as cell-based. The note with it: Table D14. The procedure: (§4) Conventional Western blot assay was performed to evaluate the effects of the compounds of the present disclosure on the expression of target proteins in cells.
(§5) (1) Cell Seeding and Protein Harvesting: The selected cells were processed according to the cell seeding procedure and protein harvesting procedure in Table III-2. Table III-2 Cell Seeding and Protein Harvesting Procedures
(§6) (2) To the collected supernatant, 5X SDS sample loading buffer was added, followed by denaturation at 95°C for 5 minutes. The denatured samples were then separated by SDS-PAGE electrophoresis on a polyacrylamide gel. Proteins were transferred to a nitrocellulose membrane (0.45 µm NC membrane), blocked with blocking buffer at room temperature for 1 hour, and subjected to antibody incubation and development procedures according to the antibody manufacturer's instructions (Cell Signaling Technology).
(§7) Half-Maximal Degradation Concentration value (the drug concentration required for degrading proteins by 50%, abbreviated as DC50) reads method: comparing the grayscale values of Western blot bands from drug-treated samples with those from blank DMSO-treated controls, and identifying the drug concentration range at which the grayscale value is half that of the DMSO-treated control bands.
(§8) DC50 values can be calculated using ImageJ software to measure grayscale values of Western blot bands from drug-treated samples. The concentration-response curve is fitted to estimate the drug concentration corresponding to half the grayscale value.
(§9) Target protein remaining (%) refers to the percentage of target protein remaining in hPBMC cells after treatment with protein degrader compounds.
Calculation method for target protein remaining (%): Use ImageJ software to measure grayscale values of Western blot bands from drug (protein degrader)-treated samples. The grayscale value of drug-treated bands is divided by that of internal control protein bands, and the resulting quotient is normalized to obtain the relative percentage of remaining target protein after protein degrader treatment. […]
In general terms: In western blotting, separated proteins are transferred to a membrane and probed.

In assay [10] the target is T1, ER (Homo sapiens, UniProt P03372).
T1 construct: evaluate the effects of the compounds of the present disclosure on the expression of target proteins in cells; endogenous in cells; host or cells: MCF-7
T1 sequence (P03372 1-595): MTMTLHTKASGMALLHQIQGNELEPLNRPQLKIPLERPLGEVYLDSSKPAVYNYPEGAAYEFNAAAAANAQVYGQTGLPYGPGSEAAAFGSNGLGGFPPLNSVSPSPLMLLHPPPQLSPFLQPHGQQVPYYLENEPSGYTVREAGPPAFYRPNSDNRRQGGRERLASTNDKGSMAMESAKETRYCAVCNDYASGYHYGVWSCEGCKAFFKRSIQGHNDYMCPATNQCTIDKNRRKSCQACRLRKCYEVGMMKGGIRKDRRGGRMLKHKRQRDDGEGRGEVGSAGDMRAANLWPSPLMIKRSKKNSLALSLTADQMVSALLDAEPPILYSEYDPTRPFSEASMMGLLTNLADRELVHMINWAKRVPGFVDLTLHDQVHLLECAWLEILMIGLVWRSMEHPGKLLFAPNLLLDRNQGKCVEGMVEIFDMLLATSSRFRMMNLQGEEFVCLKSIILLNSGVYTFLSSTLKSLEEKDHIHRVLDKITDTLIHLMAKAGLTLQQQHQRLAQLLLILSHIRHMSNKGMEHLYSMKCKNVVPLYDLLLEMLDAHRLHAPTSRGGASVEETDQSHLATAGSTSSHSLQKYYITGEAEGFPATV
Briefly: Western blot degradation of ER (MCF-7 Cell). The note with it: Table D12. It counts as cell-based. The procedure:
as §4, §5, §6, §7, §8, §9
Calculation method for target protein remaining (%): Use ImageJ software to measure grayscale values of Western blot bands from drug (protein degrader)-treated samples. The grayscale value of drug-treated bands is divided by that of internal control protein bands, and the resulting quotient is normalized to obtain the relative percentage of remaining target protein after protein degrader treatment.
Target protein degradation rate (%) = 100% - target protein remaining (%).

Assay [11] concerns the target T2, human Cereblon WT GST-tagged protein (Homo sapiens, UniProt Q96SW2).
T2 construct: purchased CISBIO 64BDCRBNPEH
The assay can be described thus: CRBN binding, HTRF (CEREBLON BINDING kit). Particulars: Table II-1, CRBN binding, HTRF. Summed up:
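After 3 h at room temperature, emission at 665 and 620 nm was measured in a homogeneous time-resolved fluorescence format. Compounds competed with a Thalidomide-Re probe for GST-tagged wild-type human CRBN, which was labelled with a Eu anti-GST antibody.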
(In general: TR-FRET usually uses a lanthanide donor and a delayed reading to cut background.)

Assay [12] deals with H1975. The assay can be described thus: CCK-8 proliferation, NCI-H1975 (H1975). Particulars: Homo sapiens, NCI-H1975; CCK-8; 96 hours; read-out: Inhibitory activity (IC50) on tumor cell proliferation, H1975. It counts as cell-based, Human. Summed up: as §1
In assay [13] the test system is TMD8. Briefly: CCK-8 proliferation, TMD8. It counts as cell-based. The note with it: Homo sapiens, TMD8; CCK-8; 72 hours; read-out: Inhibitory activity (IC50) on tumor cell proliferation, TMD8. Summed up: as §1
In assay [14] the test system is H2228. The assay can be described thus: CCK-8 proliferation, NCI-H2228 (H2228). It counts as cell-based. The note with it: Homo sapiens, NCI-H2228; CCK-8; 96 hours; read-out: Inhibitory activity (IC50) on tumor cell proliferation, H2228. An outline of the steps:
as §1

For assay [15], the system named is PC-9. The assay can be described thus: CCK-8 proliferation, PC-9. It counts as cell-based, Human. The note with it: Homo sapiens, PC-9; CCK-8; 96 hours; read-out: Inhibitory activity (IC50) on tumor cell proliferation, PC-9. Summed up:
as §1

Each structure is given as a SMILES string.

T2 sequence (Q96SW2 whole entry): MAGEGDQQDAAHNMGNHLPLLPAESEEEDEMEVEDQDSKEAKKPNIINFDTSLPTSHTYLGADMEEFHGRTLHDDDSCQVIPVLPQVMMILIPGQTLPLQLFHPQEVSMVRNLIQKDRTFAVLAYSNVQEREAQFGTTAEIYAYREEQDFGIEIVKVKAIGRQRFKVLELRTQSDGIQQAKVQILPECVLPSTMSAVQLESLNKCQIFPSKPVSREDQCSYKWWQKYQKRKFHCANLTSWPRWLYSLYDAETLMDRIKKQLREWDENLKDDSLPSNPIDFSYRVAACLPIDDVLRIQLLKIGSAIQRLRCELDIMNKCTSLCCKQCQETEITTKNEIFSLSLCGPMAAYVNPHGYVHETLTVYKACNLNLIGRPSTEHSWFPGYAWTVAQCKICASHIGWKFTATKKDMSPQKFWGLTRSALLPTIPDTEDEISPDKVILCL

Regarding `Cc1nc(Nc2ncc(C(=O)Nc3c(C)cccc3Cl)s2)cc(N2CCN(CCO)CC2)n1` [Dasatinib, reference compound], the IC50 in assay [1] was over 10000 nM; in assay [2], 1000 to 5000 nM; in assay [3] it was 1000 to 5000 nM; in assay [4], 100 to 500 nM; in assay [5] it was 5000 to 10000 nM; in assay [6], 5000 to 10000 nM.

Take `NC(=O)c1ccc(N2CCC(N3CCN(Cc4ccc(C5CCC(=O)NC5=O)cc4)CC3)CC2)nc1-c1ccc(Oc2ccccc2)cc1` (centres unmarked) [GT-03753, 6-(4-(4-(4-(2,6-dioxopiperidin-3-yl)benzyl)piperazin-1-yl)piperidin-1-yl)-2-(4-phenoxyphenyl)nicotinamide]: the results for the IC50 in [2], in [7] and in assay [8] were 500 to 1000 nM, 100 to 500 nM and 500 to 1000 nM, respectively.

As to `NC(=O)c1ccc(N2CCC(N3CCN(Cc4ccc(C5CCC(=O)NC5=O)c(F)c4)CC3)CC2)nc1-c1ccc(Oc2ccccc2)cc1` (centres unmarked) [GT-03754, 6-(4-(4-(4-(2,6-dioxopiperidin-3-yl)-3-fluorobenzyl)piperazin-1-yl)piperidin-1-yl)-2-(4-phenoxyphenyl)nicotinamide], the IC50 in [2], in [7] and in assay [8] was 100 to 500 nM each time.

On to `Cc1ccc(C(=O)Nc2ccc(CN3CCN(Cc4ccc(C5CCC(=O)NC5=O)cc4)CC3)c(C(F)(F)F)c2)cc1C#Cc1cnc2cccnn12` (centres unmarked) [GT-03936], for which the IC50 is 100 to 500 nM in assay [1]; 100 to 500 nM in assay [2]; 50 to 100 nM in assay [3]; 100 to 500 nM in assay [4]; 100 to 500 nM in assay [5]; 100 to 500 nM in assay [6].

As for `CN(Cc1ccc(C2CCC(=O)NC2=O)cc1)C1CCN(c2ccc(C(=O)Nc3n[nH]c4ccc(Cc5cc(F)cc(F)c5)cc34)c(NC3CCOCC3)c2)CC1` (centres unmarked) [GT-03964, N-(5-(3,5-difluorobenzyl)-1H-indazol-3-yl)-4-(4-((4-(2,6-dioxopiperidin-3-yl)benzyl)(methyl)amino)piperidin-1-yl)-2-((tetrahydro-2H-pyran-4-yl)amino)benzamide], in assay [9], the “Degradation of substrate protein TRK (substrate protein remaining %)” value is recorded as “A (A is defined as 0% ≤ substrate protein remaining % ≤ 80%)”.

On to `CCC(=C(c1ccc(O)cc1)c1ccc(N2CCN(Cc3ccc(C4CCC(=O)NC4=O)cc3)CC2)cc1)c1ccc(O)cc1` (centres unmarked) [GT-04149, 3-(4-((4-(4-(1,2-bis(4-hydroxyphenyl)but-1-en-1-yl)phenyl)piperazin-1-yl)methyl)phenyl)piperidine-2,6-dione], for which the “Degradation of substrate protein ER (substrate protein remaining %)” value in assay [10] is reported as “A (A is defined as 0% ≤ substrate protein remaining % ≤ 80%)”.

In [11], `O=C1CCC(c2ccc(CN3CCN(C4CCN(c5ccc([C@@H]6c7ccc(O)cc7CC[C@@H]6c6ccccc6)cc5)CC4)CC3)cc2F)C(=O)N1` (stereo partly drawn) [GT-04670, 3-(2-fluoro-4-((4-(1-(4-((1R,2S)-6-hydroxy-2-phenyl-1,2,3,4-tetrahydronaphthalen-1-yl)phenyl)piperidin-4-yl)piperazin-1-yl)methyl)phenyl)piperidine-2,6-dione] registered an IC50 of 500 to 1000 nM. Also, the “Degradation of substrate protein ER (substrate protein remaining %)” value in assay [10] is given as “A (A is defined as 0% ≤ substrate protein remaining % ≤ 80%)”.

Regarding `O=C1CCC(Nc2cccc(CN3CCN(C4CCN(c5ccc([C@@H]6c7ccc(O)cc7CC[C@@H]6c6ccccc6)cc5)CC4)CC3)c2)C(=O)N1` (stereo partly drawn) [GT-04674, 3-((3-((4-(1-(4-((1R,2S)-6-hydroxy-2-phenyl-1,2,3,4-tetrahydronaphthalen-1-yl)phenyl)piperidin-4-yl)piperazin-1-yl)methyl)phenyl)amino)pip eridine-2,6-dione], the “Degradation of substrate protein ER (substrate protein remaining %)” value in assay [10] is reported as “A (A is defined as 0% ≤ substrate protein remaining % ≤ 80%)”.

Take `O=C1CCC(c2ccc(CN3CCN(C4CCN(c5ccc([C@@H]6c7ccc(O)cc7CC[C@@H]6c6ccccc6)cc5)CC4)CC3)cc2)C(=O)N1` (stereo partly drawn) [GT-04684, 3-(4-((4-(1-(4-((1R,2S)-6-hydroxy-2-phenyl-1,2,3,4-tetrahydronaphthalen-1-yl)phenyl)piperidin-4-yl)piperazin-1-yl)methyl)phenyl)piperidine-2,6-dione]: in assay [11], the IC50 lay in the range of 1000 to 1900 nM. Further, in assay [10], the “Degradation of substrate protein ER (substrate protein remaining %)” value was “A (A is defined as 0% ≤ substrate protein remaining % ≤ 80%)”.

As for `C=CC(=O)N1CCC(c2ccc(C(N)=O)c(-c3ccc(Oc4ccccc4)cc3)n2)CC1` [Orelabrutinib, reference compound], the IC50 in assay [12] is over 10000 nM; in assay [2], over 10000 nM; in [13] it was 5000 to 10000 nM; in assay [14], over 10000 nM; in [7], over 10000 nM; in assay [15], over 10000 nM. The IC50 in assay [8] is over 10000 nM.

(Values after patent EP4678638A1, “NEW E3 UBIQUITIN LIGASE LIGAND, PROTEIN DEGRADATION AGENT AND USE THEREOF” (priority 2023, dated 2024).)
